Source: ChEMBL document CHEMBL4507304, “Data for DCP probe TP-021” (2021)

How the values were obtained:
[1] = test system: Tyrosine-protein kinase ABL1 (Homo sapiens), P00519 [F317L]; conditions: Compound concentration 1000.0 nM
[2] = test system: Tyrosine-protein kinase ABL1 (Homo sapiens), P00519 [M351T]; conditions: Compound concentration 1000.0 nM
[3] = molecular target: Ankyrin repeat and protein kinase domain-containing protein 1 (Homo sapiens) (UniProt Q8NFD2); conditions: Compound concentration 1000.0 nM
[4] = molecular target: Aurora kinase B (Homo sapiens) (UniProt Q96GD4); conditions: Compound concentration 1000.0 nM
[5] = molecular target: Mitotic checkpoint serine/threonine-protein kinase BUB1 (Homo sapiens) (UniProt O43683); conditions: Compound concentration 1000.0 nM
[6] = molecular target: Cyclin-dependent kinase 19 (Homo sapiens) (UniProt Q9BWU1); conditions: Compound concentration 1000.0 nM
[7] = molecular target: Cyclin-dependent kinase-like 2 (Homo sapiens) (UniProt Q92772); conditions: Compound concentration 1000.0 nM
[8] = molecular target: Casein kinase I isoform alpha (Homo sapiens) (UniProt P48729); conditions: Compound concentration 1000.0 nM
[9] = molecular target: Casein kinase I isoform epsilon (Homo sapiens) (UniProt P49674); conditions: Compound concentration 1000.0 nM
[10] = molecular target: Death-associated protein kinase 2 (Homo sapiens) (UniProt Q9UIK4); conditions: Compound concentration 1000.0 nM
Death-associated protein kinase 2 (Homo sapiens), sequence (Q9UIK4 whole entry, looked up): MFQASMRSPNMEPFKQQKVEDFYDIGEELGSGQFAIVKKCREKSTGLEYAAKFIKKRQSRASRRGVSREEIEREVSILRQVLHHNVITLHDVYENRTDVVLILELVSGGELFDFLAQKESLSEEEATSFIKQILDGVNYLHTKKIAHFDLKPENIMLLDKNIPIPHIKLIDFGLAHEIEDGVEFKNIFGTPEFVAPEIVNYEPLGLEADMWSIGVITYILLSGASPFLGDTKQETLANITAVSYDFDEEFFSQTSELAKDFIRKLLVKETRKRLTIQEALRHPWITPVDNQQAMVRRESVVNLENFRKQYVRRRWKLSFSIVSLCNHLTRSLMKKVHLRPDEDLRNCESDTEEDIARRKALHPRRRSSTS

[11] = molecular target: Mitogen-activated protein kinase kinase kinase 12 (Homo sapiens) (UniProt Q12852); conditions: Compound concentration 1000.0 nM
[12] = molecular target: Dual specificity tyrosine-phosphorylation-regulated kinase 1B (Homo sapiens) (UniProt Q9Y463); conditions: Compound concentration 1000.0 nM
[13] = molecular target: Epidermal growth factor receptor (Homo sapiens) (UniProt P00533); conditions: Compound concentration 1000.0 nM
[14] = test system: Epidermal growth factor receptor (Homo sapiens), P00533 [UNDEFINED MUTATION]; conditions: Compound concentration 1000.0 nM
[15] = molecular target: Serine/threonine-protein kinase/endoribonuclease IRE1 (Homo sapiens) (UniProt O75460); conditions: Compound concentration 1000.0 nM
[16] = molecular target: Receptor-type tyrosine-protein kinase FLT3 (Homo sapiens) (UniProt P36888); conditions: Compound concentration 1000.0 nM
Receptor-type tyrosine-protein kinase FLT3 (Homo sapiens), sequence (P36888 whole entry): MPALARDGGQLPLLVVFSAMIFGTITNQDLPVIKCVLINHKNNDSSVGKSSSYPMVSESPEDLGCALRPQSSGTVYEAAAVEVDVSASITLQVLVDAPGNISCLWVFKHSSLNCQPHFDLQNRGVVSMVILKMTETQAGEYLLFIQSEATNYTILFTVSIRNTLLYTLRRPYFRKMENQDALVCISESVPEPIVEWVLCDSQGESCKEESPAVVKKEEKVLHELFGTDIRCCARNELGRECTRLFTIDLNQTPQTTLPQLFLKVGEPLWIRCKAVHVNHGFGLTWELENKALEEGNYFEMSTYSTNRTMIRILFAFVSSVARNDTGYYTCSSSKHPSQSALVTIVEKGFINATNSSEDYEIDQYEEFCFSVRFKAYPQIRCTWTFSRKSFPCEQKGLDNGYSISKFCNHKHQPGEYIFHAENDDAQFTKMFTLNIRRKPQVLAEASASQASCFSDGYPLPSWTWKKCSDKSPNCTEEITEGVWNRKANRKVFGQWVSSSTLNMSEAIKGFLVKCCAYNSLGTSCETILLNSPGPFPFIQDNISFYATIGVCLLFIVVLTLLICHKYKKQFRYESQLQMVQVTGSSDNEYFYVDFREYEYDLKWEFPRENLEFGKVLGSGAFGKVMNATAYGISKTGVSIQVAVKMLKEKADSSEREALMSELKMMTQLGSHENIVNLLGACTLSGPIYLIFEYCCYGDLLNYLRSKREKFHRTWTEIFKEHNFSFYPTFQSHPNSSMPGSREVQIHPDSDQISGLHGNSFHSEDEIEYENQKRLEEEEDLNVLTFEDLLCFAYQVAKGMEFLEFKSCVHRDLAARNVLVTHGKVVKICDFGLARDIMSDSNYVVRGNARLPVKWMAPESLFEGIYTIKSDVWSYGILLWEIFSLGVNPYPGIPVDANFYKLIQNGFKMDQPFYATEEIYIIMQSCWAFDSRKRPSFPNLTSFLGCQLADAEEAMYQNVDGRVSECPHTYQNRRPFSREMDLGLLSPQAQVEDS

[17] = molecular target: Receptor-type tyrosine-protein kinase FLT3 (Homo sapiens) (UniProt P36888); conditions: Compound concentration 1000.0 nM; remark: listed apart in the source
[18] = molecular target: Rhodopsin kinase GRK1 (Homo sapiens) (UniProt Q15835); conditions: Compound concentration 1000.0 nM
[19] = molecular target: Rhodopsin kinase GRK7 (Homo sapiens) (UniProt Q8WTQ7); conditions: Compound concentration 1000.0 nM
[20] = molecular target: Homeodomain-interacting protein kinase 4 (Homo sapiens) (UniProt Q8NE63); conditions: Compound concentration 1000.0 nM
[21] = molecular target: Tyrosine-protein kinase JAK1 (Homo sapiens) (UniProt P23458); conditions: Compound concentration 1000.0 nM
[22] = molecular target: Mitogen-activated protein kinase 9 (Homo sapiens) (UniProt P45984); conditions: Compound concentration 1000.0 nM
[23] = molecular target: Leucine-rich repeat serine/threonine-protein kinase 2 (Homo sapiens) (UniProt Q5S007); conditions: Compound concentration 1000.0 nM
Leucine-rich repeat serine/threonine-protein kinase 2 (Homo sapiens), sequence (Q5S007 whole entry): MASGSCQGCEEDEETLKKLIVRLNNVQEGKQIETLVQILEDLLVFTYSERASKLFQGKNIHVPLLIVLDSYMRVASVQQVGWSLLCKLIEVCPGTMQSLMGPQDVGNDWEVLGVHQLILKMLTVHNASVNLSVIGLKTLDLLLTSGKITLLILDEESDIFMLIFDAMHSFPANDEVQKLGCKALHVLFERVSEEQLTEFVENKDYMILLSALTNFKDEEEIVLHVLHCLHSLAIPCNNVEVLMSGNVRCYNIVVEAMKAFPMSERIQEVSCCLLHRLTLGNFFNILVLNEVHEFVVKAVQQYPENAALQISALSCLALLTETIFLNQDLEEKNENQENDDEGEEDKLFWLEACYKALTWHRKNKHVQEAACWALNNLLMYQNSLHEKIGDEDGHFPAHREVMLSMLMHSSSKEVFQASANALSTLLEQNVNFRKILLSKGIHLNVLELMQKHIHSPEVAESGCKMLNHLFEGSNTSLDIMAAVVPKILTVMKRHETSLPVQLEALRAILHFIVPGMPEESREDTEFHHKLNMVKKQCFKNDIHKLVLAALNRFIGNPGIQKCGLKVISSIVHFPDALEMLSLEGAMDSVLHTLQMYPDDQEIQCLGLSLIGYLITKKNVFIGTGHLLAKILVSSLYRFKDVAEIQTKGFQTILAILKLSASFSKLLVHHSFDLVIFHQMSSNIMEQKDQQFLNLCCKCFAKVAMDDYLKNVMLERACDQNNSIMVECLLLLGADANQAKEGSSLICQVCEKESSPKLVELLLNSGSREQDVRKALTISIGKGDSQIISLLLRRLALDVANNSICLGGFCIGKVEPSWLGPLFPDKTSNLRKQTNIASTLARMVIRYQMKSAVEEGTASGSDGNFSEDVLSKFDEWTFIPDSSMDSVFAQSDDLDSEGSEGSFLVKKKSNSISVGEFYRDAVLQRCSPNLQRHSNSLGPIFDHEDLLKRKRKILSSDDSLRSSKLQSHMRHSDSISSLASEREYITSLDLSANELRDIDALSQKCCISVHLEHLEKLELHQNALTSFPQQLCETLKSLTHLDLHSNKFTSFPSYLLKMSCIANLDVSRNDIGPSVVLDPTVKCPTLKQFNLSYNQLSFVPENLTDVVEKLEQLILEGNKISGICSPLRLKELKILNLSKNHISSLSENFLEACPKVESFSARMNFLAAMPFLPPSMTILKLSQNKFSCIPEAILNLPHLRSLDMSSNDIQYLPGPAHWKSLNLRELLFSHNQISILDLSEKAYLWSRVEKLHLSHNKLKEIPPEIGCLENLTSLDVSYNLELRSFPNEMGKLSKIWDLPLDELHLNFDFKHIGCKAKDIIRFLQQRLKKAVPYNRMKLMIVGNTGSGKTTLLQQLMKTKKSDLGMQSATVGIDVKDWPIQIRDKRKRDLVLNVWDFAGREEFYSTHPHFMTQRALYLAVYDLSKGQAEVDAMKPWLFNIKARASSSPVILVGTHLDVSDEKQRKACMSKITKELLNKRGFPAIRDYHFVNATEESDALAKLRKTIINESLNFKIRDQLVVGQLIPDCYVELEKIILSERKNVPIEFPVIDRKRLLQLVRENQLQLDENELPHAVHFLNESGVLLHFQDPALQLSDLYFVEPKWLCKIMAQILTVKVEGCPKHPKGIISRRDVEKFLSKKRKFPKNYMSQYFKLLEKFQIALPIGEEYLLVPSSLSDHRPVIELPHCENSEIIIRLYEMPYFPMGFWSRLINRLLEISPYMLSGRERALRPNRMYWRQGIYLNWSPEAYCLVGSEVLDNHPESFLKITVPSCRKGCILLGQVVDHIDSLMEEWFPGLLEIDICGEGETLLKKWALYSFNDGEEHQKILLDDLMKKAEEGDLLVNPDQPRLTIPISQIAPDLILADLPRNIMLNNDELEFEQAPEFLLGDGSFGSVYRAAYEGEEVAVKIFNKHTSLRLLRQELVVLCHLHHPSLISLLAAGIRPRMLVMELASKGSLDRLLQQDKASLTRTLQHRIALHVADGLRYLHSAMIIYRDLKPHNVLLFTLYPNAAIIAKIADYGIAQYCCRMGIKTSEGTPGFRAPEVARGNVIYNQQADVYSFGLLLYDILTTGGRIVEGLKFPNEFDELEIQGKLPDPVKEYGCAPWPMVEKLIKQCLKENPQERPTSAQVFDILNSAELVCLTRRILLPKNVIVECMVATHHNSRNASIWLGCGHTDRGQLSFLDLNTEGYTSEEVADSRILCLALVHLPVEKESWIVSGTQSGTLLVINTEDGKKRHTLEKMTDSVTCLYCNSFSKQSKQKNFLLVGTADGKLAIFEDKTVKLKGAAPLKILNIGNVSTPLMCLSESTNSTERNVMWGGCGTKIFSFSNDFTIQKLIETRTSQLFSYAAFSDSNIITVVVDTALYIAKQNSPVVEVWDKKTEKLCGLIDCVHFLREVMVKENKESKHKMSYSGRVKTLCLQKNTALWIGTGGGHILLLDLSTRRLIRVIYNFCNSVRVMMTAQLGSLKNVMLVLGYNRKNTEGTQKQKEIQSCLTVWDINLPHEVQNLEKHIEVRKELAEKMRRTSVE

[24] = molecular target: Mitogen-activated protein kinase kinase kinase 15 (Homo sapiens) (UniProt Q6ZN16); conditions: Compound concentration 1000.0 nM
[25] = molecular target: Mitogen-activated protein kinase kinase kinase 4 (Homo sapiens) (UniProt Q9Y6R4); conditions: Compound concentration 1000.0 nM
[26] = molecular target: Maternal embryonic leucine zipper kinase (Homo sapiens) (UniProt Q14680); conditions: Compound concentration 1000.0 nM
[27] = molecular target: Serine/threonine-protein kinase MRCK beta (Homo sapiens) (UniProt Q9Y5S2); conditions: Compound concentration 1000.0 nM
[28] = molecular target: Mitogen-activated protein kinase 11 (Homo sapiens) (UniProt Q15759); conditions: Compound concentration 1000.0 nM
[29] = molecular target: Serine/threonine-protein kinase pim-2 (Homo sapiens) (UniProt Q9P1W9); conditions: Compound concentration 1000.0 nM
[30] = molecular target: Serine/threonine-protein kinase N1 (Homo sapiens) (UniProt Q16512); conditions: Compound concentration 1000.0 nM
[31] = molecular target: Serine/threonine-protein kinase PLK1 (Homo sapiens) (UniProt P53350); conditions: Compound concentration 1000.0 nM
[32] = molecular target: Serine/threonine-protein kinase D3 (Homo sapiens) (UniProt O94806); conditions: Compound concentration 1000.0 nM
[33] = test system: Proto-oncogene tyrosine-protein kinase receptor Ret (Homo sapiens), P07949 [V804M]; conditions: Compound concentration 1000.0 nM
[34] = molecular target: Serine/threonine-protein kinase Sgk2 (Homo sapiens) (UniProt Q9HBY8); conditions: Compound concentration 1000.0 nM
[35] = molecular target: Serine/threonine-protein kinase SIK1 (Homo sapiens) (UniProt P57059); conditions: Compound concentration 1000.0 nM
[36] = molecular target: NUAK family SNF1-like kinase 2 (Homo sapiens) (UniProt Q9H093); conditions: Compound concentration 1000.0 nM
[37] = molecular target: SRSF protein kinase 3 (Homo sapiens) (UniProt Q9UPE1); conditions: Compound concentration 1000.0 nM
[38] = molecular target: Serine/threonine-protein kinase tousled-like 1 (Homo sapiens) (UniProt Q9UKI8); conditions: Compound concentration 1000.0 nM
[39] = molecular target: Non-receptor tyrosine-protein kinase TNK1 (Homo sapiens) (UniProt Q13470); conditions: Compound concentration 1000.0 nM
[40] = molecular target: Activated CDC42 kinase 1 (Homo sapiens) (UniProt Q07912); conditions: Compound concentration 1000.0 nM
Activated CDC42 kinase 1 (Homo sapiens), sequence (Q07912 whole entry, looked up): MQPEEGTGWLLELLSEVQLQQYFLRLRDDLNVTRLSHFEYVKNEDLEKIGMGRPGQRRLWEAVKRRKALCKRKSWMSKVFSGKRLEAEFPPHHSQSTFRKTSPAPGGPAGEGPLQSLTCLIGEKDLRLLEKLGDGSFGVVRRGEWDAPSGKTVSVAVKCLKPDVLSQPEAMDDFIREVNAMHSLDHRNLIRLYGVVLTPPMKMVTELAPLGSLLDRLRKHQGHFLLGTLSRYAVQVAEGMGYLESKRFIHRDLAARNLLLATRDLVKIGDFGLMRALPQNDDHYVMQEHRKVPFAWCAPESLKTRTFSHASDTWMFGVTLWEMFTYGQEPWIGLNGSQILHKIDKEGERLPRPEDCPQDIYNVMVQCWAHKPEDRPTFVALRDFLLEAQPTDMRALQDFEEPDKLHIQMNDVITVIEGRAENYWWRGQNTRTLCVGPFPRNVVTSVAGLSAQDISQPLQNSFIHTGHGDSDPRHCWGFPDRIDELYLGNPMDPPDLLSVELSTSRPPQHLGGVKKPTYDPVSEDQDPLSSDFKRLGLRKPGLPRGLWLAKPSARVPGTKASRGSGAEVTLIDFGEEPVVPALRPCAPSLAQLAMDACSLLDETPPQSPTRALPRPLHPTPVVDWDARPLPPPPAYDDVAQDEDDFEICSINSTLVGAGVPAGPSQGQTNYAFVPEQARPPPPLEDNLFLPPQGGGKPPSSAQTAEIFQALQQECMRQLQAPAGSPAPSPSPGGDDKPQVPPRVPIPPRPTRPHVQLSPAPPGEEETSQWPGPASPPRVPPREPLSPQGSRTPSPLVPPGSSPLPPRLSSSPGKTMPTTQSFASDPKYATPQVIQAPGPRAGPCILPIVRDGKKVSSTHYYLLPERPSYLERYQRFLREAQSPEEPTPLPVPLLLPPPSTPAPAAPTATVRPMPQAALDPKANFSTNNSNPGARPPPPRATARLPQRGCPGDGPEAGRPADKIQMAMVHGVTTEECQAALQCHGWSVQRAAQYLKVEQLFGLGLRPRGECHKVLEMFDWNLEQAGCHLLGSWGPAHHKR

[41] = molecular target: Serine/threonine-protein kinase ULK2 (Homo sapiens) (UniProt Q8IYT8); conditions: Compound concentration 1000.0 nM
[42] = molecular target: Tyrosine-protein kinase ZAP-70 (Homo sapiens) (UniProt P43403); conditions: Compound concentration 1000.0 nM
[43] = molecular target: 5-hydroxytryptamine receptor 2B (Homo sapiens) (UniProt P41595); conditions: Compound concentration 10.0 uM
[44] = molecular target: Histamine H1 receptor (Homo sapiens) (UniProt P35367); conditions: Compound concentration 10.0 uM
[45] = molecular target: Sigma non-opioid intracellular receptor 1 (Homo sapiens) (UniProt Q99720); conditions: Compound concentration 10.0 uM

N#Cc1ccc(Nc2ccc3[nH]c(=O)[nH]c3c2)c(Cl)c1
inactive: residual activity [1] 84% | residual activity [2] 100% | residual activity [3] 100% | residual activity [4] 85% | residual activity [5] 100% | residual activity [6] 77% | residual activity [7] 100% | residual activity [8] 100% | residual activity [9] 94% | residual activity [10] 92% | residual activity [11] 100% | residual activity [12] 83% | residual activity [13] 100% | residual activity [14] 100% | residual activity [15] 86% | residual activity [16] 100% | residual activity [17] 97% | residual activity [18] 100% | residual activity [19] 100% | residual activity [20] 100% | residual activity [21] 97% | residual activity [22] 100% | residual activity [23] 96% | residual activity [24] 68% | residual activity [25] 95% | residual activity [26] 95% | residual activity [27] 100% | residual activity [28] 100% | residual activity [29] 83% | residual activity [30] 100% | residual activity [31] 100% | residual activity [32] 100% | residual activity [33] 93% | residual activity [34] 65% | residual activity [35] 100% | residual activity [36] 100% | residual activity [37] 100% | residual activity [38] 100% | residual activity [39] 56% | residual activity [40] 90% | residual activity [41] 99% | residual activity [42] 90% | inhibition [43] 11% | inhibition [44] 14.7% | inhibition [45] 14%

O=C1CCc2cc(Nc3cc(OC4CCOCC4)c([N+](=O)[O-])cc3Cl)ccc2N1
inactive: residual activity [1] 88% | residual activity [2] 100% | residual activity [3] 82% | residual activity [4] 86% | residual activity [5] 89% | residual activity [6] 72% | residual activity [7] 92% | residual activity [8] 100% | residual activity [9] 100% | residual activity [10] 79% | residual activity [11] 100% | residual activity [12] 74% | residual activity [13] 100% | residual activity [14] 100% | residual activity [15] 99% | residual activity [16] 90% | residual activity [17] 99% | residual activity [18] 100% | residual activity [19] 100% | residual activity [20] 98% | residual activity [21] 100% | residual activity [22] 86% | residual activity [23] 72% | residual activity [24] 78% | residual activity [25] 85% | residual activity [26] 77% | residual activity [27] 90% | residual activity [28] 88% | residual activity [29] 84% | residual activity [30] 100% | residual activity [31] 100% | residual activity [32] 92% | residual activity [33] 100% | residual activity [34] 80% | residual activity [35] 96% | residual activity [36] 89% | residual activity [37] 100% | residual activity [38] 92% | residual activity [39] 87% | residual activity [40] 100% | residual activity [41] 99% | residual activity [42] 91% | inhibition [43] 3.31% | inhibition [44] 17% | inhibition [45] 11.7%
